From patent US12054510B2, “2′ and/or 5′ amino-acid ester phosphoramidate 3′-deoxy adenosine derivatives as anti-cancer compounds” (Nucana plc, priority 2014, dated 2024)

Columns and labels:
Test in all cases: Solid tumour and haematological malignancy assay (CellTiterGlo)
Assay type in all cases: cell-based
MV4-11 = settings: for IC50: Homo sapiens, MV4-11, 72 h, read-out: IC50 (absolute IC50)
RL = settings: Homo sapiens, 72 h, read-out: MI %
CCRFCEM = settings: Homo sapiens, CCRF-CEM, 72 h
Procedure: In vitro viability assay were performed to assess the effects of compounds on cell viability in selected cell lines over 72 hr using the CellTiterGlo (CTG, Promega-G7573) assay. […] Cell viability assay using CellTiterGlo in 96-well plate were performed. Compound treatment 72 hrs, standard growth conditions, duplicates. Compounds were dissolved to 40 mM with thawed 100%. […] After compounds were dissolved in media, media containing compounds were warmed to 37° C. in incubator and then compounds in media were added to cell plates (50 μl+50 μl) in duplicates. […] All compound solubilities were checked and recorded again, then the plates were transferred to CO2 tissue culture incubator immediately and incubated for 3 days. DMSO final concentration is 0.5%.

NCI-H929 = settings: Homo sapiens, NCI-H929, 72 h, read-out: MI %

SMILES	IC50 (MV4-11) [µM]	Emax (RL) [%]	IC50 (CCRFCEM; read-out: IC50 (absolute IC50)) [µM]	Emax (NCI-H929) [%]	MI % (MV4-11; MV4-11, 72 hr) [%]	Emax (CCRFCEM; read-out: MI %) [%]
C[C@H](NP(=O)(OC[C@@H]1C[C@@H](O)[C@H](n2cnc3c(N)ncnc32)O1)Oc1cccc2ccccc12)C(=O)OCc1ccccc1 (stereo partly drawn) [B, (2S)-benzyl 2-(((((2S,4R,5R)-5-(6-amino-9H-purin-9-yl)-4-hydroxytetrahydrofuran-2-yl)methoxy)(naphthalen-1-yloxy)phosphoryl)amino)propanoate]	0.1 to 5	96	0.1 to 5	–	–	–
COC(=O)C(C)(C)NP(=O)(OC[C@@H]1C[C@@H](O)[C@H](n2cnc3c(N)ncnc32)O1)Oc1cccc2ccccc12 (stereo partly drawn) [E, Methyl 2-(((((2S,4R,5R)-5-(6-amino-9H-purin-9-yl)-4-hydroxytetrahydrofuran-2-yl)-methoxy)(naphthalen-1-yloxy)phosphoryl)amino)-2-methylpropanoate]	5 to 15	88	–	98	101	–
CCOC(=O)CCc1ccccc1OP(=O)(N[C@@H](C)C(=O)OCc1ccccc1)OC[C@@H]1C[C@@H](O)[C@H](n2cnc3c(N)ncnc32)O1 (stereo partly drawn) [F, (2S)-benzyl 2-(((((2S,4R,5R)-5-(6-amino-9H-purin-9-yl)-4-hydroxytetrahydrofuran-2-yl)methoxy)(2-(3-ethoxy-3-oxopropyl)phenoxy)phosphoryl)amino)propanoate]	–	–	–	–	–	101
